According to ChEMBL document CHEMBL1201862, “PubChem BioAssay data set” (2004):
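1) Cells in 96-well plates. 2) Compound, 48 h, 5 concentrations. 3) Linear interpolation between surrounding doses. 4) Unreached endpoint = highest concentration. GI50 = concentration required for 50% inhibition of growth.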 The source made the active and inactive calls. No stated cut-off is given here; in the data, active = GI50 up to about 1.1 µM and inactive = higher.

Experiments:
Assay in all cases: NCI tumour cell line growth inhibition, 48 h
[1] = test system: NCI-H226
[2] = test system: UACC-257
[3] = test system: SK-MEL-28
[4] = test system: IGROV-1
[5] = test system: U-251
[6] = test system: OVCAR-4
[7] = test system: OVCAR-5
[8] = test system: SK-MEL-5
[9] = test system: SK-MEL-2
[10] = test system: HOP-92
[11] = test system: HCT-15
[12] = test system: SF-539
[13] = test system: Malme-3M
[14] = test system: CAKI-1
[15] = test system: SN12C
[16] = test system: MOLT-4
[17] = test system: COLO 205

Compound	GI50 [1]	GI50 [2]	GI50 [3]	GI50 [4]	GI50 [5]	GI50 [6]	GI50 [7]	GI50 [8]	GI50 [9]	GI50 [10]	GI50 [11] [µM]	GI50 [12]	GI50 [13]	GI50 [14]	GI50 [15]	GI50 [16]	GI50 [17]
O=C(/C=C/c1ccccc1O)c1cccc2ccccc12	> 46.3 µM (inactive)	> 69.5 µM (inactive)	> 100 µM (inactive)	> 51.4 µM (inactive)	42.3 µM (inactive)	56.8 µM (inactive)	> 100 µM (inactive)	> 100 µM (inactive)	> 100 µM (inactive)	> 52.2 µM (inactive)	23.7	76.4 µM (inactive)	> 100 µM (inactive)	> 92.9 µM (inactive)	44.4 µM (inactive)	21.1 µM (inactive)	> 44.8 µM (inactive)
O=C(O)c1ccc(C2COc3ccc(Cl)cc3C2)cc1 (configuration not stated)	> 100 µM (inactive)	> 100 µM (inactive)	> 100 µM (inactive)	> 100 µM (inactive)	> 100 µM (inactive)	–	> 100 µM (inactive)	> 100 µM (inactive)	> 100 µM (inactive)	> 100 µM (inactive)	> 100	> 100 µM (inactive)	> 100 µM (inactive)	> 100 µM (inactive)	> 100 µM (inactive)	> 100 µM (inactive)	> 100 µM (inactive)
CCC(=O)N1C(=S)SC[C@H]1C(=O)OC	> 100 µM (inactive)	> 100 µM (inactive)	> 100 µM (inactive)	> 100 µM (inactive)	> 100 µM (inactive)	> 100 µM (inactive)	> 100 µM (inactive)	> 100 µM (inactive)	–	> 100 µM (inactive)	–	> 100 µM (inactive)	> 100 µM (inactive)	> 100 µM (inactive)	> 100 µM (inactive)	> 100 µM (inactive)	> 100 µM (inactive)
C=C1C(=O)O[C@@H]2[C@H]1CCC(C)=C1C=CC(=O)[C@]12C	22.9 µM (inactive)	12.4 µM (inactive)	11.1 µM (inactive)	21.8 µM (inactive)	22.4 µM (inactive)	–	17.9 µM (inactive)	13.9 µM (inactive)	20.7 µM (inactive)	6.22 µM (inactive)	–	15.5 µM (inactive)	> 10 µM (inactive)	15.1 µM (inactive)	12.6 µM (inactive)	10.9 µM (inactive)	8.36 µM (inactive)
CCOP1(=O)C=C(C)C(Cl)=C(C)C1 (configuration not stated)	21.4 µM (inactive)	23.1 µM (inactive)	17.3 µM (inactive)	56.1 µM (inactive)	24.3 µM (inactive)	24.2 µM (inactive)	43.9 µM (inactive)	23.1 µM (inactive)	8.91 µM (inactive)	19.6 µM (inactive)	23.3	23.1 µM (inactive)	–	–	21 µM (inactive)	20.4 µM (inactive)	12 µM (inactive)
CC1=C(C(=O)Nc2ccccc2C)C(c2ccc(C3C(C(=O)Nc4ccccc4C)=CNC=C3C(=O)Nc3ccccc3C)cc2)C(C(=O)Nc2ccccc2C)=C(C)N1	17 µM (inactive)	17.1 µM (inactive)	17.9 µM (inactive)	18.6 µM (inactive)	12.2 µM (inactive)	14.7 µM (inactive)	21.6 µM (inactive)	12.9 µM (inactive)	15.7 µM (inactive)	22.4 µM (inactive)	16.8	14.4 µM (inactive)	19.1 µM (inactive)	21.3 µM (inactive)	14.8 µM (inactive)	4.5 µM (inactive)	21 µM (inactive)
CC(=O)O[C@H]1CSC[C@@H](OC(C)=O)C1[N+](=O)[O-] (some centres not stated)	> 100 µM (inactive)	20.6 µM (inactive)	26.8 µM (inactive)	> 100 µM (inactive)	> 100 µM (inactive)	54.8 µM (inactive)	> 100 µM (inactive)	47.8 µM (inactive)	27.3 µM (inactive)	19 µM (inactive)	30.1	43.8 µM (inactive)	23 µM (inactive)	48.6 µM (inactive)	> 100 µM (inactive)	27.8 µM (inactive)	21.4 µM (inactive)
COc1cc2cc(OC(C)=O)c3cc4c(cc3c2c(OC)c1OC)OCO4	> 100 µM (inactive)	> 100 µM (inactive)	> 100 µM (inactive)	> 100 µM (inactive)	> 100 µM (inactive)	> 100 µM (inactive)	> 100 µM (inactive)	> 100 µM (inactive)	> 100 µM (inactive)	–	> 100	> 100 µM (inactive)	> 100 µM (inactive)	–	> 100 µM (inactive)	> 100 µM (inactive)	> 100 µM (inactive)
COC(=O)C1C(=O)CC2CCCCC21 (configuration not stated)	> 100 µM (inactive)	> 100 µM (inactive)	> 100 µM (inactive)	> 100 µM (inactive)	> 100 µM (inactive)	> 100 µM (inactive)	–	> 100 µM (inactive)	> 100 µM (inactive)	–	> 100	> 100 µM (inactive)	> 100 µM (inactive)	> 100 µM (inactive)	> 100 µM (inactive)	> 100 µM (inactive)	> 100 µM (inactive)
